One assay relates to P. aeruginosa strains. Kind of assay: MIC by macrodilution. It counts as cell-based. Particulars: Pseudomonas aeruginosa. From the text:
(§1) “MIC”, which stands for minimum inhibitory concentration, refers to that concentration, in μg/mL, of a compound of this invention that inhibits the growth and/or proliferation of a strain of bacteria by at least 80% compared to an untreated control as determined by visual inspection of a liquid culture.
Synergy time-kill was used to test the activity of Example 1, alone and in combination with cefepime, doripenem, imipenem and piperacillin/tazobactam, against 10 P. aeruginosa strains. The 10 clinical isolates included 5 cefepime resistant, 5 doripenem resistant, 8 imipenem resistant, and 9 piperacillin/tazobactam resistant strains. MICs were determined by macrodilution and time-kill was used to verify the activity of all five agents alone. MICs were predetermined by macrodilution in cation-adjusted Mueller-Hinton broth (BBL Microbiology Systems, Cockeysville, Md.) according to standard methodology. All strains were tested by time-kill methodology with each compound alone according to standard methods. Strains were examined by PCR for genes encoding aminoglycoside modifying enzymes (AMEs). Cultures were initiated by adding 35-μL aliquots of suspensions into 5 mL of broth. Viability counts (100-μL aliquots) in synergy tests were performed at 0, 3, 6, 12, and 24 h in a shaking water bath at 35° C. with final inocula of between 5×10^5 and 5×10^6 CFU/mL. Only plates with 30 to 300 colonies were counted.

Another assay deals with S. aureus strains. Kind of assay: MIC by macrodilution. The note with it: Staphylococcus aureus. It counts as cell-based.
Description: as §1
Synergy time-kill was used to test the activity of Example 1, alone and in combination with daptomycin (DAP), ceftobiprole (BPR), and linezolid (LZD), against 25 S. aureus strains. 25 clinical isolates included 2 hVISA, 2 VISA, and 5 VRSA, 10 hospital acquired and 6 community acquired MRSA strains. MICs were determined by macrodilution and time-kill was used to verify the activity of all four agents alone. MICs were predetermined by macrodilution in cation-adjusted Mueller-Hinton broth (BBL Microbiology Systems, Cockeysville, Md.) according to standard methodology. Daptomycin susceptibility testing was performed in Mueller-Hinton broth adjusted to 50 μg/mL of calcium according to standard methodology. All strains were tested by time-kill methodology with each compound alone according to standard methods. Cultures were initiated by adding 35-μL aliquots of suspensions into 5 mL of broth. Viability counts (100-μL aliquots) in synergy tests were performed at 0, 3, 6, 12, and 24 h in a shaking water bath at 35° C. with final inocula of between 5×10^5 and 5×10^6 CFU/mL. Only plates with 30 to 300 colonies were counted.

[1] abbreviates: range over 10 P. aeruginosa strains, read-out: MICs of each agent alone.
The mark [2] stands for this setting: ATCC 33591 / MRSA, Strain 13, ATCC33591 HA-MRSA, read-out: MIC.
The mark [3] stands for this setting: MRSA, Strain 6, CA-MRSA, PVL+, read-out: MIC.
Setting [4] is: MRSA, Strain 7, CA-MRSA, PVL+, read-out: MIC.
Where [5] appears, read: MRSA, Strain 8, CA-MRSA, PVL+, read-out: MIC.
Where [6] appears, read: MRSA, Strain 14, HA-MRSA, read-out: MIC.
Where [7] appears, read: MRSA, Strain 15, HA-MRSA, read-out: MIC.
Setting [8] is: MRSA, Strain 16, HA-MRSA, read-out: MIC.
Where [9] appears, read: MRSA, Strain 17, HA-MRSA, read-out: MIC.
The mark [10] stands for this setting: MRSA, Strain 18, HA-MRSA, read-out: MIC.
Setting [11] is: MRSA, Strain 19, HA-MRSA, read-out: MIC.
Where [12] appears, read: MRSA, Strain 20, HA-MRSA, read-out: MIC.
Where [13] appears, read: MRSA, Strain 21, HA-MRSA, read-out: MIC.
The mark [14] stands for this setting: MRSA, Strain 22, HA-MRSA, read-out: MIC.
Setting [15] is: MRSA, Strain 23, CA-MRSA PVL+, read-out: MIC.
[16] abbreviates: MRSA, Strain 24, CA-MRSA PVL+, read-out: MIC.
The mark [17] stands for this setting: MRSA, Strain 25, CA-MRSA PVL neg, read-out: MIC.
The mark [18] stands for this setting: Strain 10, hVISA, read-out: MIC.
Where [19] appears, read: VISA, Strain 11, VISA, read-out: MIC.
Where [20] appears, read: VISA, Strain 12, VISA, read-out: MIC.
Setting [21] is: VRSA, Strain 1, VRSA, read-out: MIC.
Where [22] appears, read: VRSA, Strain 2, VRSA, read-out: MIC.
[23] abbreviates: VRSA, Strain 3, VRSA, read-out: MIC.
Setting [24] is: VRSA, Strain 4, VRSA, read-out: MIC.
The mark [25] stands for this setting: VRSA, Strain 5, VRSA, read-out: MIC.
Setting [26] is: range over 25 S. aureus strains, read-out: MICs of each agent alone.

Read-outs that look alike come from different tables or passages of the source.

`CO/N=C(\C(=O)N[C@@H]1C(=O)N2C(C(=O)[O-])=C(C[N+]3(C)CCCC3)CS[C@H]12)c1csc(N)n1` [Cefepime, cefepime]: the MIC in the assay with P. aeruginosa strains amounted to 256 µg/mL; in the assay on P. aeruginosa strains (Strain 1, read-out: MIC) it was 16 µg/mL; in the assay with P. aeruginosa strains (Strain 2, read-out: MIC), 4 µg/mL; in the assay with P. aeruginosa strains (Strain 3, read-out: MIC), 8 µg/mL; in the assay on P. aeruginosa strains (Strain 4, read-out: MIC), 8 µg/mL; with P. aeruginosa strains (Strain 5, read-out: MIC) it was 32 µg/mL. The MIC was 1 µg/mL with P. aeruginosa strains (Strain 6, read-out: MIC); 16 µg/mL in the assay on P. aeruginosa strains (Strain 7, read-out: MIC); 4 µg/mL in the assay on P. aeruginosa strains (Strain 8, read-out: MIC); 32 µg/mL with P. aeruginosa strains (Strain 9, read-out: MIC); 1 to 256 µg/mL with P. aeruginosa strains (setting [1]).

`Nc1nc(/C(=N/O)C(=O)N[C@@H]2C(=O)N3C(C(=O)O)=C(/C=C4\CCN([C@@H]5CCNC5)C4=O)CS[C@H]23)ns1` [Ceftobiprole, ceftobiprole]: the MIC came out at 2 µg/mL in the assay on S. aureus strains (setting [2]); 1 µg/mL in the assay on S. aureus strains (setting [3]); 1 µg/mL in the assay with S. aureus strains (setting [4]); 1 µg/mL in the assay with S. aureus strains (setting [5]); 2 µg/mL in the assay on S. aureus strains (setting [6]); 1 µg/mL in the assay on S. aureus strains (setting [7]). The MIC in the assay on S. aureus strains (setting [8]) is 2 µg/mL; with S. aureus strains (setting [9]), 2 µg/mL; with S. aureus strains (setting [10]), 1 µg/mL; in the assay on S. aureus strains (setting [11]), 1 µg/mL; with S. aureus strains (setting [12]) it was 2 µg/mL; in the assay on S. aureus strains (setting [13]), 1 µg/mL. In addition, the MIC in the assay on S. aureus strains (setting [14]) is 2 µg/mL; in the assay with S. aureus strains (setting [15]), 1 µg/mL; with S. aureus strains (setting [16]) it was 1 µg/mL; in the assay with S. aureus strains (setting [17]) it was 2 µg/mL; with S. aureus strains (Strain 9, hVISA, read-out: MIC) it was 2 µg/mL; in the assay with S. aureus strains (setting [18]), 2 µg/mL. Moreover, the MIC stood at 1 µg/mL in the assay on S. aureus strains (setting [19]); 0.5 µg/mL in the assay on S. aureus strains (setting [20]); 1 µg/mL with S. aureus strains (setting [21]); 1 µg/mL with S. aureus strains (setting [22]); 2 µg/mL in the assay on S. aureus strains (setting [23]); 2 µg/mL in the assay on S. aureus strains (setting [24]). The MIC in the assay with S. aureus strains (setting [25]) is 0.5 µg/mL; in the assay on S. aureus strains (setting [26]), 0.5 to 2 µg/mL.

Consider `CCCCCCCCCC(=O)N[C@@H](Cc1c[nH]c2ccccc12)C(=O)N[C@H](CC(N)=O)C(=O)N[C@@H](CC(=O)O)C(=O)N[C@@H]1C(=O)NCC(=O)N[C@@H](CCCN)C(=O)N[C@@H](CC(=O)O)C(=O)N[C@H](C)C(=O)N[C@@H](CC(=O)O)C(=O)NCC(=O)N[C@H](CO)C(=O)N[C@@H]([C@H](C)CC(=O)O)C(=O)N[C@@H](CC(=O)c2ccccc2N)C(=O)O[C@@H]1C` [Daptomycin, daptomycin], for which the MIC amounted to 0.5 µg/mL in the assay with S. aureus strains (setting [2]); 0.5 µg/mL in the assay with S. aureus strains (setting [3]); 0.5 µg/mL in the assay on S. aureus strains (setting [4]); 0.5 µg/mL in the assay with S. aureus strains (setting [5]); 0.25 µg/mL in the assay with S. aureus strains (setting [6]); 0.5 µg/mL in the assay with S. aureus strains (setting [7]). The MIC in the assay with S. aureus strains (setting [8]) worked out at 1 µg/mL; with S. aureus strains (setting [9]), 0.5 µg/mL; with S. aureus strains (setting [10]), 0.5 µg/mL; with S. aureus strains (setting [11]), 0.5 µg/mL; with S. aureus strains (setting [12]), 0.5 µg/mL; with S. aureus strains (setting [13]), 0.5 µg/mL. For the same compound, the MIC in the assay on S. aureus strains (setting [14]) amounted to 0.5 µg/mL; in the assay with S. aureus strains (setting [15]) it was 1 µg/mL; in the assay on S. aureus strains (setting [16]), 0.5 µg/mL; in the assay on S. aureus strains (setting [17]) it was 0.5 µg/mL; in the assay on S. aureus strains (Strain 9, hVISA, read-out: MIC) it was 1 µg/mL; in the assay with S. aureus strains (setting [18]), 0.5 µg/mL. Besides, the MIC in the assay on S. aureus strains (setting [19]) is 4 µg/mL; in the assay on S. aureus strains (setting [20]), 2 µg/mL; in the assay on S. aureus strains (setting [21]) it was 0.5 µg/mL; with S. aureus strains (setting [22]) it was 0.25 µg/mL; in the assay with S. aureus strains (setting [23]) it was 0.5 µg/mL; in the assay on S. aureus strains (setting [24]) it was 0.5 µg/mL. Moreover, the MIC with S. aureus strains (setting [25]) was 0.25 µg/mL; in the assay on S. aureus strains (setting [26]) it was 0.25 to 4 µg/mL.

Consider `C[C@@H](O)[C@H]1C(=O)N2C(C(=O)O)=C(S[C@@H]3CN[C@H](CNS(N)(=O)=O)C3)[C@H](C)[C@H]12` [Doripenem, doripenem], for which the MIC stood at 2 µg/mL in the assay on P. aeruginosa strains (Strain 1, read-out: MIC); 0.25 µg/mL with P. aeruginosa strains (Strain 2, read-out: MIC); 4 µg/mL in the assay on P. aeruginosa strains (Strain 3, read-out: MIC); 2 µg/mL with P. aeruginosa strains (Strain 4, read-out: MIC); 8 µg/mL in the assay on P. aeruginosa strains (Strain 5, read-out: MIC); 0.5 µg/mL with P. aeruginosa strains (Strain 6, read-out: MIC). Also, the MIC in the assay with P. aeruginosa strains (Strain 7, read-out: MIC) is 8 µg/mL; in the assay on P. aeruginosa strains (Strain 8, read-out: MIC), 2 µg/mL; in the assay on P. aeruginosa strains (Strain 9, read-out: MIC), 32 µg/mL; in the assay with P. aeruginosa strains (Strain 10, read-out: MIC), 8 µg/mL; in the assay with P. aeruginosa strains (setting [1]), 0.25 to 32 µg/mL.

In the case of `C[C@@H](O)[C@H]1C(=O)N2C(C(=O)O)=C(SCCN=CN)C[C@H]12` [Imipenem, imipenem], the MIC with P. aeruginosa strains (Strain 1, read-out: MIC) worked out at 8 µg/mL; in the assay on P. aeruginosa strains (Strain 2, read-out: MIC) it was 2 µg/mL; in the assay on P. aeruginosa strains (Strain 3, read-out: MIC) it was 8 µg/mL; in the assay on P. aeruginosa strains (Strain 4, read-out: MIC), 16 µg/mL; in the assay with P. aeruginosa strains (Strain 5, read-out: MIC), 32 µg/mL; in the assay on P. aeruginosa strains (Strain 6, read-out: MIC), 0.25 µg/mL. The MIC is 4 µg/mL with P. aeruginosa strains (Strain 7, read-out: MIC); 4 µg/mL in the assay on P. aeruginosa strains (Strain 8, read-out: MIC); 32 µg/mL in the assay on P. aeruginosa strains (Strain 9, read-out: MIC); 32 µg/mL in the assay with P. aeruginosa strains (Strain 10, read-out: MIC); 0.25 to 32 µg/mL in the assay on P. aeruginosa strains (setting [1]).

Turning to `CC(=O)NC[C@H]1CN(c2ccc(N3CCOCC3)c(F)c2)C(=O)O1` [Linezolid, linezolid], the MIC in the assay on S. aureus strains (setting [2]) turned out to be 2 µg/mL; in the assay on S. aureus strains (setting [3]), 4 µg/mL; with S. aureus strains (setting [4]) it was 4 µg/mL; with S. aureus strains (setting [5]), 2 µg/mL; in the assay with S. aureus strains (setting [6]), 4 µg/mL; with S. aureus strains (setting [7]), 4 µg/mL. Also, the MIC in the assay with S. aureus strains (setting [8]), in the assay with S. aureus strains (setting [9]), with S. aureus strains (setting [10]), in the assay on S. aureus strains (setting [11]), in the assay on S. aureus strains (setting [12]) and in the assay on S. aureus strains (setting [13]) was 4 µg/mL each time. Further, the MIC with S. aureus strains (setting [14]) was determined as 4 µg/mL; in the assay on S. aureus strains (setting [15]), 4 µg/mL; in the assay with S. aureus strains (setting [16]), 4 µg/mL; in the assay on S. aureus strains (setting [17]), 4 µg/mL; in the assay on S. aureus strains (Strain 9, hVISA, read-out: MIC), 4 µg/mL; with S. aureus strains (setting [18]), 2 µg/mL. Besides, the MIC with S. aureus strains (setting [19]) is 2 µg/mL; with S. aureus strains (setting [20]), 4 µg/mL; in the assay on S. aureus strains (setting [21]) it was 2 µg/mL; with S. aureus strains (setting [22]), 4 µg/mL; in the assay on S. aureus strains (setting [23]), 2 µg/mL; with S. aureus strains (setting [24]) it was 4 µg/mL. In addition, the MIC is 2 µg/mL in the assay with S. aureus strains (setting [25]) and 2 to 4 µg/mL in the assay with S. aureus strains (setting [26]).

Values taken from patent US20120196791A1, “COMBINATION THERAPIES USING ANTIBACTERIAL AMINOGLYCOSIDE COMPOUNDS” (Achaogen, Inc., priority 2009, published 2012).
